{"source": "patent EP0405998A1", "about": "“Antibiotic agents” (priority 1989, dated 1991)", "key": {"[1]": {"test_system": "Pneumocystis carinii", "experiment": "Pneumocystis carinii infection in immunosuppressed mice, lung cyst count", "format": "in vivo, C3H/He mice", "settings": "2.0 mg/kg intraperitoneally twice daily, lung tissue", "procedure": "In a representative study on the effectiveness of Compound IB, ten male C3H/He mice, weighing 22-24 gms. each, were immunosuppressed by the addition of dexamethasone to the drinking water (8.0 mg/L) for six weeks to induce the development of P. carinii infections. To enhance the infection the mice were also maintained on a low protein diet. At the beginning of the seventh week the mice were divided into two groups. Both groups continued to receive dexamethasone in the drinking water and low protein diet for the remainder of the study. Mice in Group I were injected intraperitoneally twice daily with 0.5 ml of a 10% dimethylsulfoxide (DMSO) solution as a vehicle control. Mice in Group II were injected intraperitoneally twice daily with 0.5 ml of sterile water containing 0.05 mg of compound IB (dissolved in DMSO, final concentration of DMSO is 10%, actual dose was 2.0 mg/kg). […]\nAt the end of the treatment period (a total of eight weeks immunosuppression) the animals were sacrificed and the lung tissue removed. The tissue was then processed to determine the number of cysts for each animal. Compound IB reduced the number of cysts by 84% as compared to the control animals. […]"}, "[2]": {"test_system": "red blood cells", "experiment": "titration/hemolysis assay, red blood cell lysis", "format": "cell-based, CD-1 female mice", "settings": "highest drug concentration that did not lyse the red blood cells; 25°C, two hours; 5 percent dextrose", "procedure": "Compound I or a component thereof has potential as a replacement for a known antifungal agent which while effective as an antifungal agent is of limited utility for having lytic effect on red blood cells at low dose levels. This property was discovered in a standard titration/hemolysis assay using fresh blood drawn from CD-1 female mice. In a representative assay, a concentration of Compound IB in the range of from 0.39 to 400 µg/ml in 5 percent dextrose and a drug free control were employed.\nIn carrying out the determination, the assay tubes prepared by mixing together 2 milliliters of appropriate drug dilution and 0.5 milliliter of red blood cell suspension were gently shaken to mix the contents and then the tubes were incubated at 25°C for two hours. At the end of this time, the tubes were examined visually for complete or partial red blood cell hemolysis and compared to a drug free control. […] The MLC for Compound IB was greater than 400 µg/ml."}, "[3]": {"test_system": "Candida parapsilosis", "experiment": "microbroth dilution assay, minimum fungicidal concentration (MFC)", "format": "cell-based", "settings": "Lodderomyces parapsilosis, YNBD medium", "procedure": "(§1) The activity may be seen in a microbroth dilution assay employing as medium a Yeast Nitrogen Base (Difco) with 1% dextrose (YNBD) as the medium. In carrying out the assay, Compound IB, IC-1 and IC-2 were solubilized in 10 percent dimethyl sulfoxide (DMSO) and diluted to 2560 µg/ml. The compounds were then diluted to 256 µg/ml in YNBD. 0.15 ml of the suspension was dispensed to the top row of a 96-well plate (each well containing 0.15 ml of YNDB) resulting in a drug concentration of 128 µg/ml. Two-fold dilutions were then made from the top row to obtain final drug concentrations ranging from 128 to 0.06 µg/ml.\n(§2) The yeast cultures, maintained on Sabouraud dextrose agar were transferred to YM broth (Difco) and incubated overnight at 35°C with shaking (250 rpm). After incubation, each culture was diluted in sterile water to yield a final concentration of 1-5 x 10⁶ colony forming units (CFU)/ml.\n(§3) 96-well microplates were inoculated using a MIC-2000 (Dynatech) which delivers 1.5 µl per well yielding a final inoculum per well of 1.5-7.5 x 10³ cells. The microplates were incubated at 35°C for 24 hours. The minimum inhibitory concentrations (MICs) were recorded as the lowest concentrations of drug showing no visible growth.\n(§4) After recording the MIC, the plates were shaken to resuspend the cells. Thereafter, […] samples from the wells in the 96-well microplate were transferred to a single well tray containing Sabouraud dextrose agar. The inoculated trays were incubated 24 hours at 28°C and then read. The MFC is defined as the lowest concentration of drug showing no growth or less than 4 colonies per spot."}, "[4]": {"test_system": "Candida tropicalis", "experiment": "microbroth dilution assay, minimum fungicidal concentration (MFC)", "format": "cell-based", "settings": "read-out: Minimum Fungicidal Concentration", "procedure": "as §1, §2, §3, §4"}, "[5]": {"test_system": "Candida albicans", "experiment": "microbroth dilution assay, minimum fungicidal concentration (MFC)", "format": "cell-based", "procedure": "as §1, §2, §3, §4"}}, "note": "Where two headings read alike, the source gives them in different places.", "data": [{"compound": "1-[N²-(10,12-dimethyl-1-oxotetradecyl)ornithine]-4-[4-(4-hydroxyphenyl)-2-aminobutanoic acid]-5-(3-hydroxyglutamine)echinocandin B [Compound IC]", "values": [{"measurement": "reduced the number of cysts as compared to the control animals", "setting": "[1]; treatment period one week", "result": 66, "unit": "%"}]}, {"compound": "CCC(C)CC(C)CCCCCCCCC(=O)NC1CCC(O)NC(=O)C2C(O)C(C)CN2C(=O)C(C(O)CC(N)=O)NC(=O)C(CCc2ccc(O)cc2)NC(=O)C2CC(O)CN2C(=O)C(C(C)O)NC1=O", "note": "(stereo not shown) [Compound IB, 1-[5-hydroxy N²-(10, 12-dimethyl-1-oxotetra-decyl)-ornithine]-4-[4-(4-hydroxyphenyl)-2-amino-butanoic acid]-5-(3-hydroxyglutamine) echinocandin B]", "values": [{"measurement": "minimum lytic concentration (MLC)", "setting": "[2]", "result": "greater than 400 µg/ml"}, {"measurement": "MFC", "setting": "[3]; read-out: Minimum Fungicidal Concentration, Candida parapsilosis MY 1009", "result": 16, "unit": "µg/mL"}, {"measurement": "MFC", "setting": "[3]; read-out: Minimum Fungicidal Concentration, Candida parapsilosis MY 1010", "result": 8, "unit": "µg/mL"}, {"measurement": "MFC", "setting": "[4]", "result": 2, "unit": "µg/mL"}, {"measurement": "MFC", "setting": "[5]; read-out: Minimum Fungicidal Concentration, Candida albicans MY 1028, YNBD medium", "result": 1, "unit": "µg/mL"}, {"measurement": "MFC", "setting": "[5]; read-out: Minimum Fungicidal Concentration, Candida albicans MY 1055, YNBD medium", "result": 0.5, "unit": "µg/mL"}, {"measurement": "MFC", "setting": "[5]; read-out: Minimum Fungicidal Concentration, Candida albicans MY 1208, YNBD medium", "result": 2, "unit": "µg/mL"}, {"measurement": "MFC", "setting": "[5]; read-out: Minimum Fungicidal Concentration, Candida albicans MY 1585, YNBD medium", "result": 1, "unit": "µg/mL"}, {"measurement": "MFC", "setting": "[5]; read-out: Minimum Fungicidal Concentration, Candida albicans MY 1750, YNBD medium", "result": 1, "unit": "µg/mL"}, {"measurement": "MFC", "setting": "[5]; read-out: Minimum Fungicidal Concentration, Candida albicans MY 1783, YNBD medium", "result": 2, "unit": "µg/mL"}, {"measurement": "reduced the number of cysts as compared to the control animals", "setting": "[1]; treatment period two weeks", "result": 84, "unit": "%"}]}, {"compound": "C[C@@H]1[C@H](O)[C@@H](C)/C=C/C=C/C=C/C=C/C=C/C=C/C=C/[C@H](O[C@@H]2O[C@H](C)[C@@H](O)[C@H](N)[C@@H]2O)C[C@@H]2O[C@](O)(C[C@@H](O)C[C@@H](O)[C@H](O)CC[C@@H](O)C[C@@H](O)CC(=O)O[C@H]1C)C[C@H](O)[C@H]2C(=O)O", "note": "[amphotericin B, reference compound]", "values": [{"measurement": "minimum lytic concentration (MLC)", "setting": "[2]", "result": 12.5, "unit": "µg/mL"}]}]}
